Source: patent US8846951B2 (AbbVie Inc., priority 2009, dated 2014)
Like-named read-outs stand apart in the source and are kept apart here.

Columns and labels:
[1] = molecular target: T1, 5HT2B receptors (Homo sapiens, UniProt P41595); assay: Human 5-HT2B functional high throughput screening assay in CHO-K1 cells (calcium flux); format: cell-based; settings: for EC50: CHO-K1 cells, calcium flux
T1 construct: expressed in transfected cells; host or cells: CHO-K1 cells
Protocol: (§1) (iii) Human 5-HT2C and 5-HT2B Functional High Throughput Screening Assays in CHO-K1 Cells
(§2) CHO-K1 cells over-expressing 5HT2C or 5HT2B receptors were grown in 1272 cm^2 flasks to 70-80% confluency in UltraCHO media (Lonza, Walkersville, Md.) supplemented with 1% dialyzed fetal bovine serum (FBS), 250 μg/mL zeocin, 100 U/mL penicillin and 100 μg/mL streptomycin, and 400 μg/mL geneticin. The cells were dissociated from the flasks using 0.05% trypsin, resuspended in Recovery™ cell culture freezing medium (Invitrogen, Carlsbad, Calif.) and stored in liquid nitrogen until use. The calcium flux experiments were done using frozen cells. The cells were diluted in media containing 1% dialyzed FBS and 100 U/mL penicillin and 100 μg/mL streptomycin and plated into 384-well poly-D-Lysine coated plates (15,000 cells/well). Then the plates were incubated overnight in a cell incubator at 37° C., 5% CO2. On the next day, the growth media was replaced with media without FBS and further incubated overnight. On day three, the changes in intracellular Ca^2+ were determined using calcium sensitive fluorescent dye, Ca4 (MDS Analytical Technologies, Sunnyvale, Calif.) by loading 15 μL of diluted dye in Hank's Balanced Salt Solution and 20 mM Hepes buffer (pH 7.4) with final concentration of 2.5 mM probenecid into the cells containing media. Then the cells were incubated at room temperature for 60 minutes in dark.
(§3) After incubation, the cell plates were transferred to FLIPR™ (MDS) and their fluorescence measurements were read at an excitation wavelength of 480 nm and an emission wavelength of 530 nm at 25° C. The baseline fluorescence was measured for the first 10 seconds and then 15 μL of 4× concentration of serotonin/test compound was added to the cells. The fluorescence intensity was captured every second for the first 1 minute followed by every 5 seconds for an additional 2 minutes. The increase in fluorescent response by a test compound was normalized to the response of serotonin and used to determine agonist activity. The concentration response of compounds was done from a starting concentration of 10 μM, 1:10 dilution across 6 wells with a final dimethyl sulfoxide concentration of 0.2% and was fitted using a 4-parameter logistic equation. The concentration at which a compound exerts half its maximal effect was named as ‘effective concentration 50’ or ‘EC50’. Emax is the maximum functional response or efficacy expressed as a percentage relative to the effect of serotonin.

[2] = molecular target: T2, 5HT2C receptors (Homo sapiens, UniProt P28335); assay: Human 5-HT2C functional high throughput screening assay in CHO-K1 cells (calcium flux); format: cell-based; set-up: expressed in transfected cells; host or cells: CHO-K1 cells; settings: for EC50: CHO-K1 cells, calcium flux; for Emax: CHO-K1, 5-HT2C, maximum functional response as percentage relative to the effect of serotonin
T2 sequence (P28335 33-458): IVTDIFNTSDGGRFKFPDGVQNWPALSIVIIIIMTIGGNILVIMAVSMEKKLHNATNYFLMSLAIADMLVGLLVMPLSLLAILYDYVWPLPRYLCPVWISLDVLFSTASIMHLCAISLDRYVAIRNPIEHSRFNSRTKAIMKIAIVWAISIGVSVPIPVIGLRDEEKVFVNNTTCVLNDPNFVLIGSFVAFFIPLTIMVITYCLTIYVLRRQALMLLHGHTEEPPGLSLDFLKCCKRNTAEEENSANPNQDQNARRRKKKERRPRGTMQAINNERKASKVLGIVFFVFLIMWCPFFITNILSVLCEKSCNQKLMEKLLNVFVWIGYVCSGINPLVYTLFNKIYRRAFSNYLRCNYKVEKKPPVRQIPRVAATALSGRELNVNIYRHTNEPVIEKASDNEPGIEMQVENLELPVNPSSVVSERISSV
Protocol: as §1, §2, §3

[3] = 5-HT2B agonist activity, read-out: EC50
[4] = 5-HT2B, maximum functional response as percentage relative to the effect of serotonin
[5] = 5-HT2C agonist activity, read-out: EC50

T1 sequence (P41595 whole entry): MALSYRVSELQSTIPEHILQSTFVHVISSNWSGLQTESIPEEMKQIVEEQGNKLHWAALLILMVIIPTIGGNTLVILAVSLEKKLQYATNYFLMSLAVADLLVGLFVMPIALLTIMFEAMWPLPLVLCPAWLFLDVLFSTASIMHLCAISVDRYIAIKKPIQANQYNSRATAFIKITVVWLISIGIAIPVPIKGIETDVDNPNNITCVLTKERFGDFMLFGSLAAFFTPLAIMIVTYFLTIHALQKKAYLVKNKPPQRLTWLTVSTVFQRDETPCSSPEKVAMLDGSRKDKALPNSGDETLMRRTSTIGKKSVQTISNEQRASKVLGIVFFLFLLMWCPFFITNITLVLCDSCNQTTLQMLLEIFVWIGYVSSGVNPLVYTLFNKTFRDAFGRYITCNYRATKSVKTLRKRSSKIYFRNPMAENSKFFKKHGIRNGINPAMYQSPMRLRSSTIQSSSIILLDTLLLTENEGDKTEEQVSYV

SMILES | EC50 [1, 3] [nM] | Emax [1, 4] | EC50 [2, 5] [nM] | Emax ([2]; read-out: Emax) [%] | Emax ([1]; CHO-K1, 5-HT2B, maximum functional response as percentage relative to the effect of serotonin, read-out: Emax) [%] | Emax ([1]; CHO-K1) [%] | EC50 ([1]; EC50, 5-HT2B agonist activity) [nM] | Emax [2] [%] | EC50 ([2]; EC50, 5-HT2C agonist activity) [nM]
CN1C[C@H]2CNC(=O)c3cc(-c4cccc(S(C)(=O)=O)c4)ccc3[C@@H]2C1 (relative stereo) [Example 84, Trans-2-methyl-8-(3-(methylsulfonyl)phenyl)-1,2,3,3a,4,5-hexahydrobenzo[e]pyrrolo[3,4-c]azepin-6(10bH)-one] | > 10000 | inactive |  | > 120 |  |  |  |  | 
COC(=O)c1ccc2c(c1)C(=O)NC[C@@H]1CN(C)C[C@@H]21 (relative stereo) [Example 88, Trans-methyl 2-methyl-6-oxo-1,2,3,3a,4,5,6,10b-octahydrobenzo[e]pyrrolo[3,4-c]azepine-8-carboxylate] | > 10000 | inactive | 500 | > 120 |  |  |  |  | 
CN1C[C@H]2CNC(=O)c3cccc(F)c3[C@@H]2C1 (relative stereo) [Example 89, Trans-10-fluoro-2-methyl-1,2,3,3a,4,5-hexahydrobenzo[e]pyrrolo[3,4-c]azepin-6(10bH)-one] |  |  |  |  |  | 33 | 560 | > 120 | 11.5
CN1C[C@H]2CNC(=O)c3c(F)cccc3[C@@H]2C1 (relative stereo) [Example 92, Trans-7-fluoro-2-methyl-1,2,3,3a,4,5-hexahydrobenzo[e]pyrrolo[3,4-c]azepin-6(10bH)-one] |  |  |  |  |  | 34 | 1350 | > 120 | 56
O=C1NC[C@@H]2CN(Cc3ccccc3)C[C@H]2c2c1sc1ccccc21 (relative stereo) [Example 97, Trans-2-benzyl-2,3,3a,4,5,11c-hexahydro[1]benzothieno[2,3-c]pyrrolo[3,4-e]azepin-6(1H)-one] | 4000 |  | 1000 | 110 | 40 |  |  |  | 
O=C1NC[C@@H]2CNC[C@H]2c2c1sc1ccccc21 (relative stereo) [Example 99, Trans-2,3,3a,4,5,11c-hexahydro[1]benzothieno[2,3-e]pyrrolo[3,4-e]azepin-6(1H)-one] |  |  |  |  |  | 90 | 1000 | > 120 | 20
COc1cc(OC)c2c(c1)C(=O)NC[C@@H]1CNC[C@@H]21 (relative stereo) [Example 100, Trans-8,10-dimethoxy-1,2,3,3a,4,5-hexahydrobenzo[c]pyrrolo[3,4-e]azepin-6(10bH)-one] |  |  |  |  |  | 70 | 900 | > 120 | 3
O=C1NC[C@@H]2CNC[C@H]2c2cccc(OC(F)(F)F)c21 (relative stereo) [Example 103, Trans-7-(trifluoromethoxy)-1,2,3,3a,4,5-hexahydrobenzo[c]pyrrolo[3,4-e]azepin-6(10bH)-one] |  |  |  |  |  | 110 | 80 | > 120 | 0.7
O=C1NC[C@@H]2CNC[C@H]2c2sccc21 (relative stereo) [Example 104, Trans-6,6a,7,8,9,9a-hexahydropyrrolo[3,4-e]thieno[3,2-c]azepin-4(5H)-one] | > 10000 | inactive | 900 |  |  |  |  | > 120 | 

Continued, in another order:

EC50 [1, 3] [nM] | Emax [1, 4] | EC50 [2, 5] [nM] | Emax ([2]; read-out: Emax) [%] | Emax ([1]; CHO-K1, 5-HT2B, maximum functional response as percentage relative to the effect of serotonin, read-out: Emax) [%] | SMILES | Emax ([1]; CHO-K1) [%] | EC50 ([1]; EC50, 5-HT2B agonist activity) [nM] | Emax [2] [%] | EC50 ([2]; EC50, 5-HT2C agonist activity) [nM]
> 10000 | inactive | 6.6 | > 120 |  | CN1C[C@H]2CNC(=O)c3cc(-c4ccc(F)c(F)c4)ccc3[C@@H]2C1 (relative stereo) [Example 78, Trans-8-(3,4-difluorophenyl)-2-methyl-1,2,3,3a,4,5-hexahydrobenzo[e]pyrrolo[3,4-c]azepin-6(10bH)-one] |  |  |  | 
> 10000 | inactive | 30 | > 120 |  | CN1C[C@H]2CNC(=O)c3cc(-c4ccc(C(F)(F)F)cc4)ccc3[C@@H]2C1 (relative stereo) [Example 79, Trans-2-methyl-8-(4-(trifluoromethyl)phenyl)-1,2,3,3a,4,5-hexahydrobenzo[e]pyrrolo[3,4-c]azepin-6(10bH)-one] |  |  |  | 
> 10000 | inactive | 22 | > 120 |  | CN1C[C@H]2CNC(=O)c3cc(-c4ccc5ccccc5c4)ccc3[C@@H]2C1 (relative stereo) [Example 80, Trans-2-methyl-8-(naphthalen-2-yl)-1,2,3,3a,4,5-hexahydrobenzo[e]pyrrolo[3,4-c]azepin-6(10bH)-one] |  |  |  | 
> 10000 | inactive | 1.7 | > 120 |  | Cc1cccc(-c2ccc3c(c2)C(=O)NC[C@@H]2CN(C)C[C@@H]32)c1 (relative stereo) [Example 81, Trans-2-methyl-8-m-tolyl-1,2,3,3a,4,5-hexahydrobenzo[e]pyrrolo[3,4-c]azepin-6(10bH)-one] |  |  |  | 
> 10000 | inactive | 4.2 | > 120 |  | Cc1ccc(-c2ccc3c(c2)C(=O)NC[C@@H]2CN(C)C[C@@H]32)cc1 (relative stereo) [Example 82, Trans-2-methyl-8-p-tolyl-1,2,3,3a,4,5-hexahydrobenzo[e]pyrrolo[3,4-c]azepin-6(10bH)-one] |  |  |  | 
> 10000 | inactive | 200 | > 120 |  | CN1C[C@H]2CNC(=O)c3cc(-c4ccc(S(C)(=O)=O)cc4)ccc3[C@@H]2C1 (relative stereo) [Example 83, Trans-2-methyl-8-(4-(methylsulfonyl)phenyl)-1,2,3,3a,4,5-hexahydrobenzo[e]pyrrolo[3,4-c]azepin-6(10bH)-one] |  |  |  | 
> 10000 | inactive | 121 | 100 |  | CN1C[C@H]2CNC(=O)c3cc(C=Cc4ccccc4)ccc3[C@@H]2C1 (relative stereo) [Example 85, Trans-2-methyl-8-styryl-1,2,3,3a,4,5-hexahydrobenzo[e]pyrrolo[3,4-c]azepin-6(10bH)-one] |  |  |  | 
> 10000 | inactive | 38 | 90 |  | CN1C[C@H]2CNC(=O)c3cc(CCc4ccccc4)ccc3[C@@H]2C1 (relative stereo) [Example 87, Trans-2-methyl-8-phenethyl-1,2,3,3a,4,5-hexahydrobenzo[e]pyrrolo[3,4-c]azepin-6(10bH)-one] |  |  |  | 
> 10000 | inactive | 10 | > 120 |  | COc1cc(OC)c2c(c1)C(=O)NC[C@@H]1CN(Cc3ccccc3)C[C@@H]21 (relative stereo) [Example 98, Trans-2-benzyl-8,10-dimethoxy-1,2,3,3a,4,5-hexahydrobenzo[c]pyrrolo[3,4-e]azepin-6(10bH)-one] |  |  |  | 
> 10000 | inactive | 400 | > 120 |  | O=C1NC[C@@H]2CN(Cc3ccccc3)C[C@H]2c2sccc21 (relative stereo) [Example 101, Trans-8-benzyl-6,6a,7,8,9,9a-hexahydropyrrolo[3,4-e]thieno[3,2-c]azepin-4(5H)-one] |  |  |  | 
> 10000 | inactive | 100 | > 120 |  | O=C1NC[C@@H]2CN(Cc3ccccc3)C[C@H]2c2cccc(OC(F)(F)F)c21 (relative stereo) [Example 102, Trans-2-benzyl-7-(trifluoromethoxy)-1,2,3,3a,4,5-hexahydrobenzo[c]pyrrolo[3,4-e]azepin-6(10bH)-one] |  |  |  | 
